# From patent publication US12329753B2, “Phosphodiesterase inhibitor treatment” (Cyrano Therapeutics, Inc., priority 2008, dated 2025)
# Marks after values point to notes of the source that are not given here.
# Tests used:
# Type in all cases: in vivo, human
# [1] = Blood serum theophylline, fluorescence polarization assay (Example 1)
# Description: (§1) Patients returned for reevaluation after two to four months of treatment. Measurements of blood serum theophylline were measured by a fluorescence polarization assay (Abbott, Chicago, IL). At this time, subjective changes in smell function were measured independently (compared to patient's memory of previous normal smell function monitored by use of the patients' daily measurements) using the scale from −100-0-+100 previously described (vs). After independently recording their subjective responses, smell function was measured for all four odors with DT, RT, ME and H determined without recourse to prior measurements.
# [2] = tested on: patients with hyposmia; test: Hedonic (H) value of odors, -100-0-+100 scale, open trial of oral theophylline
# Description: In addition, each patient graded the hedonic (H) value of each odor presented for these same odor concentrations (from 10^−2M—an absolute odor concentration using a −100-0-+100 scale). […] Results were obtained by calculating the arithmetical sum of each correct recognition response for each odor with respect to its pleasantness, unpleasantness or neutrality. Arithmetic M±SEM were obtained for each treatment group for each odor presented.
# After determination of hyposmia, patients were treated in an open label, fixed design, controlled open trial. Patients were given an oral extended release theophylline in divided daily doses taken in the middle of breakfast and lunch. All patients were initially given 200 mg of theophylline; changes in this dose were made based upon subjective responses to therapy. If at a subsequent return visit, patients reported ≥5% subjective improvement in overall smell function, they continued on this same dose of theophylline and were reevaluated after four to six months of continued treatment. Results from any subsequent return from these improved patients were not included in any subsequent data report. All subsequent comparisons between treated and untreated patients were made only between those patients continuing in the study compared to their own measurements obtained in the untreated state. If patients reported <5% subjective improvement, their theophylline dose was increased by 200 mg daily and they were scheduled for retesting at the study site after two to four months at this new dosage. For patients that reported <5% improvement, this sequence continued until patients reached 800 mg of theophylline, at which time the study was considered completed.
# as §1
# [3] = tested on: patients with hyposmia; test: Side effects of intranasal theophylline; conditions: intranasal 20 μg per naris once a day
# Description: The patients inserted a plastic syringe containing 0.4 ml of fluid (20 μg theophylline) into each naris once a day. […] The drug dose was delivered through a plastic nipple which fitted snugly onto the filled syringe which was attached directly to the nipple. One nipple was supplied for each set of two syringes in each application kit. The patient fitted the nipple on one syringe, placed the nipple securely into the lower naris and injected the contents of the syringe directly into the lower vault of one naris accompanied by a modest inhalation. This technique was then used for the second syringe used for the other naris. The patients were instructed to administer the drug either seated or standing with their head in an erect, vertical position.
# [4] = oral 400 mg daily, 2-6 months, all patients (120), mean ± SEM
# [5] = oral 600 mg daily, 2-12 months, all patients (160), mean ± SEM
# [6] = oral 800 mg daily, 2-12 months, all patients (28), mean ± SEM
# [7] = oral 800 mg, Type I hyposmia (12), mean ± SEM
structure (smiles),measurement,setting,value
Cn1c(=O)c2[nH]cnc2n(C)c1=O [theophylline],mean serum theophylline,[1]; oral 200 mg daily,4.0±0.2
same,mean serum theophylline,[1]; oral 400 mg daily,7.4±0.4
same,"increase in H, amyl acetate",[2]; oral 200 mg,2%
same,"increase in H, nitrobenzene",[2]; oral 200 mg,2%
same,"increase of H value, amyl acetate","[2]; oral 200 mg, not statistically significant",50%
same,"change in H (more pleasant), amyl acetate",[2]; oral 400 mg,1%
same,"change in H (more pleasant), nitrobenzene",[2]; oral 400 mg,4%
same,"change in H, pyridine",[2]; oral 400 mg,9%
same,"change in H, thiophene",[2]; oral 400 mg,7%
same,"decrease of H value, thiophene",[2]; oral 400 mg,40%
same,"hedonic estimation (H), amyl acetate",[2]; [4],3 ± 2^ %
same,"hedonic estimation (H), nitrobenzene",[2]; [4],8 ± 3^a %
same,"hedonic estimation (H), pyridine",[2]; [4],−26 ± 3^b %
same,"hedonic estimation (H), thiophene",[2]; [4],−19 ± 2^d %
same,"increase of H value, nitrobenzene","[2]; oral 400 mg, not statistically significant",50%
same,"hedonic estimation (H), amyl acetate",[2]; [5],4 ± 1%
same,"hedonic estimation (H), nitrobenzene",[2]; [5],8 ± 2^d %
same,"hedonic estimation (H), pyridine",[2]; [5],−19 ± 2 ^ %
same,"hedonic estimation (H), thiophene",[2]; [5],−14 ± 2 ^ %
same,"decrease of H value, pyridine",[2]; oral 800 mg,55%
same,"decrease of H value, thiophene",[2]; oral 800 mg,37%
same,"increase of H value, amyl acetate",[2]; oral 800 mg,about 50%
same,"increase of H value, nitrobenzene",[2]; oral 800 mg,about 50%
same,"hedonic estimation (H), amyl acetate",[2]; [6],8 ± 5%
same,"hedonic estimation (H), nitrobenzene",[2]; [6],13 ± 7 ^ %
same,"hedonic estimation (H), pyridine",[2]; [6],−22 ± 6%
same,"hedonic estimation (H), thiophene",[2]; [6],−15 ± 4%
same,"hedonic value (row printed R), amyl acetate",[2]; [7],−1 ± 4 ^ %
same,"hedonic value (row printed R), nitrobenzene",[2]; [7],2 ± 2^a %
same,"hedonic value (row printed R), pyridine",[2]; [7],−11 ± 5^a %
same,"hedonic value (row printed R), thiophene",[2]; [7],−4 ± 2^a %
same,side effects,[3],no side effects
